Test [1] has as its target T1, Adapter molecule crk (Homo sapiens, UniProt P46108). As to the kind of experiment: Binding affinity to recombinant human CRK-2 nSH3 domain (1 to 304 residues) expressed in Escherichia coli by NMR analysis.
In test [2] the target is T1, Adapter molecule crk. As to the kind of experiment: Binding affinity to human c-CRK N-terminal SH3 domain expressed in Escherichia coli BL21 (DE3) by tryptophan fluorescence quenching assay.
Test [3] addresses T1, Adapter molecule crk. As to the kind of experiment: Binding affinity to recombinant human CRK-2 nSH3 domain (1 to 304 residues) expressed in Escherichia coli assessed as inhibition of Abl T315I mutant-mediated CRK-2 phosphorylation at Y221 residue at 1 uM after 10 to 30 mins by PAGE analysis.
Test [4] addresses T1, Adapter molecule crk. Kind of test: Binding affinity to recombinant human CRK-2 nSH3 domain (1 to 304 residues) expressed in Escherichia coli at 25 degC by tryptophan fluorescence quenching assay.
Test [5] addresses T1, Adapter molecule crk. As to the kind of experiment: Binding affinity to recombinant human CRK-2 nSH3 domain (1 to 304 residues) expressed in Escherichia coli by tryptophan fluorescence quenching assay.
The target of test [6] is T1, Adapter molecule crk. As to the kind of experiment: Ratio of Kd for recombinant human CRK-2 nSH3 domain (1 to 304 residues) expressed in Escherichia coli at 35 degC in presence of 1 M NaCl to Kd for recombinant human CRK-2 nSH3 domain (1 to 304 residues) expressed in Escherichia coli at 35 degC in presence of 80 mM NaCl.
For test [7], the target named is T1, Adapter molecule crk. As to the kind of experiment: Binding affinity to recombinant human CRK-2 nSH3 domain (1 to 304 residues) expressed in Escherichia coli assessed as inhibition of interaction with Abl by measuring Abl-mediated CRK-2 phosphorylation at Y221 residue at 1 uM after 10 to 30 mins by PAGE analysis (reference value: 62%). More on the design: scale not given: the % may be the effect or the level left.

The values below come from ChEMBL document CHEMBL4257487, “Structure-guided design of a potent peptide inhibitor targeting the interaction between CRK and ABL kinase” (Medchemcomm, 2018).

Structures are written as SMILES. The source made the active and inactive calls. The calls are words filed in the database; no cut-off is given here. Where a SMILES comes first, the peptide text is derived from it.

T1 sequence (P46108 whole entry, the tested form may be a part): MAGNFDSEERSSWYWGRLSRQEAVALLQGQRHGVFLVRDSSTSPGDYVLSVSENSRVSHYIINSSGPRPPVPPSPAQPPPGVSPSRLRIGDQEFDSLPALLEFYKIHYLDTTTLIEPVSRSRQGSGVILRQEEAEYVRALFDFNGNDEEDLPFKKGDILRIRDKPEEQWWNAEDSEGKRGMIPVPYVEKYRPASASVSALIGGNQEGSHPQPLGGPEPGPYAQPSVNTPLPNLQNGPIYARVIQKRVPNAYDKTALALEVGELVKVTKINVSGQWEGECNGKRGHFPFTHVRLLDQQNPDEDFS

One may read the Kd as the constant that tells how readily two partners part at equilibrium. With `CC(C)C[C@H](NC(=O)[C@H](C)NC(=O)[C@@H]1CCCN1C(=O)[C@@H]1CCCN1C(=O)[C@@H]1CCCN1)C(=O)N1CCC[C@H]1C(=O)N1CCC[C@H]1C(=O)N[C@@H](CCCCN)C(=O)N[C@@H](CCCCN)C(=O)N[C@@H](CCCNC(=N)N)C(=O)O`, the outcome in test [1] was Active. Further, the dissociation constant (Kd) in test [2] was determined as 1900 nM.
For the molecule `CC(C)C[C@H](NC(=O)[C@H](C)NC(=O)[C@@H]1CCCN1C(=O)[C@@H]1CCCN1C(=O)[C@@H](N)CO)C(=O)N1CCC[C@H]1C(=O)N[C@@H](CCCCN)C(=O)N[C@@H](CCCCN)C(=O)N[C@@H](CCCNC(=N)N)C(=O)N[C@@H](CCC(N)=O)C(=O)N[C@@H](CO)C(=O)N[C@@H](Cc1ccc(O)cc1)C(=O)N[C@@H](CCCNC(=N)N)C(=O)N[C@@H](CCCNC(=N)N)C(=O)O` (H-SPPALPKKRQSYRR-OH), in test [3], the inhibition result is “Active”. Also, the Kd in test [4] and in test [5] was 9 nM in each case. In test [1], the outcome was Active. Also, the Ratio in test [6] is 50. Further, in test [7], the Activity was 21%.
On to `Cc1ccc(NC(=O)c2ccc(CN3CCN(C)CC3)cc2)cc1Nc1nccc(-c2cccnc2)n1`, for which the inhibition entry in test [3] is “inactive”. The Activity in test [7] amounted to 33%.
As to `CC(C)C[C@H](NC(=O)[C@H](C)NC(=O)[C@@H]1CCCN1C(=O)[C@@H]1CCCN1C(=O)[C@@H]1CCCN1C(=O)[C@H](CO)NC(=O)[C@H](CC(N)=O)NC(=O)[C@@H](N)CC(=O)O)C(=O)N1CCC[C@H]1C(=O)N[C@@H](CCCCN)C(=O)N[C@@H](CCCCN)C(=O)N[C@@H](CCCNC(=N)N)C(=O)N[C@@H](CCC(N)=O)C(=O)N[C@@H](CO)C(=O)N[C@@H](Cc1ccc(O)cc1)C(=O)O` (H-DNSPPPALPKKRQSY-OH), the outcome in test [1] was Active. For the same molecule, in test [5], the Kd was found to be 400 nM.
